What was measured:
HIV-IIIb = assay: Test A: Antiviral assay in MT4 cells; type: cell-based, HIV-1; details: MT-4 cells infected with HIV-IIIb, 5 days, CellTiter-Glo; for inhibition at 2 µM: Human immunodeficiency virus 1, IIIB, MT4, 120 h, read-out: % inhibition at 2 μM, percent inhibition of virus-induced cell killing, from dose response curve at 2 uM drug
in vitro = details: human, uninfected MT-4 cells, CC50 (nM), same protocol as Test A, CellTiter-Glo
How it was run: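 Cytoprotection read-out: CellTiter-Glo chemiluminescence after 5 days at 37 °C of HIV-IIIb-infected MT-4 cells (m.o.i. 0.003) with compound in 10-point 3-fold dilutions, quadruplicate, 10% FBS. Cytotoxicity (CC50) measured identically without virus.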

NC(=O)c1cc(-c2cccnc2[C@H](Cc2cc(F)cc(F)c2)NC(=O)Cn2nc(C(F)F)c3c2C2CC(C2)C3=O)ccc1F [Example 397, (S)-5-(2-(2-(3,5-difluorophenyl)-1-(2-(4,5,6,7-tetrahydro-3-difluoromethyl-4-oxo-5,7-(methano)indazol-1-yl)acetamido)ethyl)pyridin-3-yl)-2-fluorobenzamide]
inhibition at 2 µM (HIV-IIIb): 26%
CC50 at 5 days (in vitro): > 53200 nM

CS(=O)(=O)c1ccc(-c2cccnc2[C@H](Cc2cc(F)cc(F)c2)NC(=O)Cn2nc(C(F)(F)F)c3c2CCCC3)cc1 [Example 425, (S)—N-(2-(3,5-difluorophenyl)-1-(3-(4-(methylsulfonyl)phenyl)pyridin-2-yl)ethyl)-2-(3-(trifluoromethyl)-4,5,6,7-tetrahydro-1H-indazol-1-yl)acetamide]
inhibition at 2 µM (HIV-IIIb): 85%
CC50 at 5 days (in vitro): 15600 nM

Nc1ccc(-c2cccnc2[C@H](Cc2cc(F)cc(F)c2)NC(=O)Cn2nc(C(F)F)c3c2C(F)(F)CCC3(F)F)cn1 [Example 375, (S)—N-(1-(6′-amino-3,3′-bipyridin-2-yl)-2-(3,5-difluorophenyl)ethyl)-2-(3-(difluoromethyl)-4,4,7,7-tetrafluoro-4,5,6,7-tetrahydro-1H-indazol-1-yl)acetamide]
inhibition at 2 µM (HIV-IIIb): 98%
CC50 at 5 days (in vitro): 15200 nM

CC(=O)Nc1cc(-c2cccnc2[C@H](Cc2cc(F)cc(F)c2)NC(=O)Cc2c[nH]c3ccc(F)cc23)ccc1F [Example 473, (S)—N-(1-(3-(3-acetamido-4-fluorophenyl)pyridin-2-yl)-2-(3,5-difluorophenyl)ethyl)-2-(5-fluoro-1H-indol-3-yl)acetamide]
inhibition at 2 µM (HIV-IIIb): 18%
CC50 at 5 days (in vitro): 14600 nM

NC(=O)c1cc(-c2cccnc2[C@H](Cc2cc(F)cc(F)c2)NC(=O)Cn2ccc3ccc4ccccc4c32)ccc1F [Example 56B, (S)-5-(2-(1-(2-(1H-benzo[g]indol-1-yl)acetamido)-2-(3,5-difluorophenyl)ethyl)pyridin-3-yl)-2-fluorobenzamide]
inhibition at 2 µM (HIV-IIIb): 4%
CC50 at 5 days (in vitro): 18900 nM

NC(=O)c1cccc(-c2cccnc2[C@H](Cc2cc(F)cc(F)c2)NC(=O)Cn2ccc3c(F)cc(F)cc32)c1 [Example 546C, (S)-3-(2-(1-(2-(4,6-difluoro-1H-indol-1-yl)acetamido)-2-(3,5-difluorophenyl)ethyl)pyridin-3-yl)benzamide]
inhibition at 2 µM (HIV-IIIb): 15%
CC50 at 5 days (in vitro): 16800 nM

NC(=O)c1cc(-c2cccnc2[C@H](Cc2cc(F)cc(F)c2)NC(=O)Cn2nc(C(F)(F)F)cc2C2=CCCC2)ccc1F [Example 130D, (S)-5-(2-(1-(2-(5-cyclopentenyl-3-(trifluoromethyl)-1H-pyrazol-1-yl)acetamido)-2-(3,5-difluorophenyl)ethyl)pyridin-3-yl)-2-fluorobenzamide]
inhibition at 2 µM (HIV-IIIb): 39%
CC50 at 5 days (in vitro): 15800 nM

CC(C)NS(=O)(=O)c1ccc(-c2cccnc2[C@H](Cc2cc(F)cc(F)c2)NC(=O)Cn2nc(C(F)F)c3c2C(F)(F)C2CC32)cc1 (stereo partly drawn) [Example 70, (S)—N-(1-(3-(4-(N-isopropylsulfamoyl)phenyl)-pyridin-2-yl)-2-(3,5-difluorophenyl)ethyl)-2-(3-(difluoromethyl)-5,6-dihydro-4,5-(methano)-6,6-difluoro-cyclopenta[c]pyrazol-1(4H)-yl)acetamide]
inhibition at 2 µM (HIV-IIIb): 56%
CC50 at 5 days (in vitro): 51200 nM

NC(=O)c1cc(-c2cccnc2[C@H](Cc2cc(F)cc(F)c2)NC(=O)Cn2nc(C=O)c3c2C2CC(C3)C2)ccc1F [Example 96, (S)-5-(2-(2-(3,5-difluorophenyl)-1-(2-(4,5,6,7-tetrahydro-3-formyl-5,7-(methano)indazol-1-yl)acetamido)ethyl)pyridin-3-yl)-2-fluorobenzamide]
inhibition at 2 µM (HIV-IIIb): 104%
CC50 at 5 days (in vitro): 9620 nM

CC(C)CC(C(=O)N[C@@H](Cc1cc(F)cc(F)c1)c1ncccc1-c1ccc(F)c(C(N)=O)c1)n1ccc(C(F)(F)F)n1 (single isomer, unassigned) [Example 581D]
inhibition at 2 µM (HIV-IIIb): 6%
CC50 at 5 days (in vitro): 10600 nM

O=C(Cc1c[nH]c2ccc(F)cc12)N[C@@H](Cc1cc(F)cc(F)c1)c1ncccc1-c1ccc(Cl)c(F)c1 [Example 434]
inhibition at 2 µM (HIV-IIIb): 20%
CC50 at 5 days (in vitro): 12300 nM

CC(C)(C)OC(=O)N1CCOC[C@@H]1C(=O)N[C@@H](Cc1cc(F)cc(F)c1)c1ncccc1-c1ccc(F)c(C(N)=O)c1 [Example 133, (R)-tert-butyl 3-((S)-1-(3-(3-carbamoyl-4-fluorophenyl)pyridin-2-yl)-2-(3,5-difluorophenyl)ethylcarbamoyl)morpholine-4-carboxylate]
inhibition at 2 µM (HIV-IIIb): 1%
CC50 at 5 days (in vitro): > 53000 nM

Cc1noc(C)c1-c1cccnc1[C@H](Cc1cc(F)cc(F)c1)NC(=O)Cc1c[nH]c2ccc(F)cc12 [Example 94, N-((1S)-2-(3,5-difluorophenyl)-1-(3-(3,5-dimethylisoxazol-4-yl)pyridin-2-yl)ethyl)-2-(5-fluoro-1H-indol-3-yl)acetamide]
inhibition at 2 µM (HIV-IIIb): 3%
CC50 at 5 days (in vitro): 42000 nM

NC(=O)c1cc(-c2cccnc2[C@H](Cc2cc(F)cc(F)c2)NC(=O)Cn2nc(C(F)(F)F)c3c2CCC=C3)ccc1F [Example 339B, (S)-5-(2-(2-(3,5-difluorophenyl)-1-(2-(3-(trifluoromethyl)-6,7-dihydro-1H-indazol-1-yl)acetamido)ethyl)pyridin-3-yl)-2-fluorobenzamide]
inhibition at 2 µM (HIV-IIIb): 53%
CC50 at 5 days (in vitro): 19400 nM

NC(=O)c1cc(-c2cccnc2[C@H](Cc2cc(F)cc(F)c2)NC(=O)Cc2cc(=O)[nH]c3ccccc23)ccc1F [Example 201, (S)-5-(2-(2-(3,5-difluorophenyl)-1-(2-(2-oxo-1,2-dihydroquinolin-4-yl)acetamido)ethyl)pyridin-3-yl)-2-fluorobenzamide]
inhibition at 2 µM (HIV-IIIb): 8%
CC50 at 5 days (in vitro): > 53200 nM

NC(=O)c1cc(-c2cccnc2[C@H](Cc2cc(F)cc(F)c2)NC(=O)C2CCCN2C(=O)c2ccccc2)ccc1F (stereo partly drawn) [Example 126, 1-benzoyl-N—((S)-1-(3-(3-carbamoyl-4-fluorophenyl)pyridin-2-yl)-2-(3,5-difluorophenyl)ethyl)pyrrolidine-2-carboxamide]
inhibition at 2 µM (HIV-IIIb): 7%
CC50 at 5 days (in vitro): > 53000 nM

CC(C)c1nccn1CC(=O)N[C@@H](Cc1cc(F)cc(F)c1)c1ncccc1-c1ccc(F)c(C(N)=O)c1 [Example 537, (S)-5-(2-(2-(3,5-difluorophenyl)-1-(2-(2-isopropyl-1H-imidazol-1-yl)acetamido)ethyl)pyridin-3-yl)-2-fluorobenzamide]
inhibition at 2 µM (HIV-IIIb): 2%
CC50 at 5 days (in vitro): > 53200 nM

CCC(C(=O)N[C@@H](Cc1cc(F)cc(F)c1)c1ncccc1-c1ccc(F)c(C(N)=O)c1)n1ccnc1C(C)C (single isomer, unassigned) [Example 558B]
% inhibition at 2 μM (HIV-IIIb; percent inhibition of virus-induced cell killing, from dose response curve at 2 uM drug): 3%
CC50 at 5 days (in vitro): > 53200 nM

O=C(Cn1nc(C(F)F)cc1C(F)F)N[C@@H](Cc1cc(F)cc(F)c1)c1ccccn1 [Example 528, (S)-2-(3,5-bis(difluoromethyl)-1H-pyrazol-1-yl)-N-(2-(3,5-difluorophenyl)-1-(pyridin-2-yl)ethyl)acetamide]
inhibition at 2 µM (HIV-IIIb): 0%
CC50 at 5 days (in vitro): > 53200 nM

CCC(C(=O)N[C@@H](Cc1cc(F)cc(F)c1)c1ncccc1-c1ccc(F)c(C(N)=O)c1)n1ccc(C(F)(F)F)n1 (single isomer, unassigned) [Example 572B]
inhibition at 2 µM (HIV-IIIb): 11%
CC50 at 5 days (in vitro): 36700 nM

Reference: patent US9540343B2 (Gilead Sciences, Inc., priority 2011, dated 2017)
